Assay results: patent US20160243271A1, “Essential Oils Or Volatile Organics Thereof Electrospun In Chitosan Nanofiber Mats” (UNIVERSITY OF MASSACHUSETTS, priority 2013, published 2016)
≈ marks a conversion by molar mass, not a printed value.

Legend:
E. coli = settings: CA in solution; cited from earlier work
P. aeruginosa S20930 = test: Viability loss of P. aeruginosa, PI/DAPI fluorescence assay; type: cell-based, Pseudomonas aeruginosa
Description: (§1) The model organisms were Escherichia coli S20918 (E. coli) and P. aeruginosa S20930 (P. aeruginosa), purchased from Thermo Fisher Scientific, Waltham, Mass. The bacteria were grown in LB at 37.0 and harvested at a concentration of 10^8 cells/mL. To remove residual macromolecules and other growth medium constituents, cells were washed twice and then resuspended in an isotonic solution (0.9% NaCl, pH 5.7). This isotonic solution was used for E. coli and P. aeruginosa loss of viability studies.
Viability loss of P. aeruginosa in contact with chitosan/CA(0, 0.5, and 5.0%)/PEO nanofiber mats was determined using a previously described fluorescence assay.^33 Electrospun mats (20 mm×10 mm) were placed at the bottom of 35 mm×10 mm petri dishes (Becton, Dickinson & Co., Franklin Lakes, N.J.) to which the cells (10^7 cells/mL) resuspended in an isotonic solution were added and diluted by a factor of 2. The cells were incubated at 37° C. for various times (30, 90, and 180 min). […] Fluorescence images were acquired to detect the cells utilizing an epifluorescence microscope (Olympus) with a Chroma cube filter. […] Dead cells and the total number of cells were determined by direct cell counting. […] Throughout the Results and Discussion section, all statistical differences were determined using an unpaired t-test with values of p≦0.05 considered to be statistically significant.

Escherichia coli S20918 = test: Viability loss of E. coli, modified ASTM E2149-01 shake flask method; type: cell-based; settings: 3 mM CA solution
Description: as §1
The viability loss of E. coli in contact with chitosan/CA(0, 0.5, and 5.0%)/PEO nanofiber mats was assayed according to a modified ASTM E2149-01 shake flask method.^30 In parallel to each experiment (i) a blank control (no nanofiber mat) and (ii) an MIC control of CA for E. coli (3 mM CA in solution) were employed.^19 Electrospun mats (10 mm×20 mm) were placed into culture tubes (16 mm×125 mm) along with 4 mL suspensions of E. coli or P. aeruginosa (5×10^6 cells/mL) in an isotonic solution (0.9% NaCl, pH 5.7). The suspensions were shaken at 200 rpm in an orbital shaker maintained at 37° C. At 30, 90, and 180 minutes, 100 μL were pipetted out from the tubes and serial dilutions were plated onto LB plates using the spread plate method.^30-32 After 24 hr incubation on agar plates, the number of viable bacteria was counted. The number of viable cells was multiplied by the dilution factor and expressed as the mean colony forming unit (CFU) per mL. The percent reduction of bacteria resulting from contact with the nanofiber mats was determined using Equation 1 where A represents the mean log10 density of bacteria for the flask containing the treated substrate after the specified contact time and B represents the untreated substrate after the specified contact time.

Structure (SMILES): O=CC=Cc1ccccc1 [CA, cinnamaldehyde]
- MIC (E. coli): 3000 µM (≈ 396 µg/mL)
- P. aeruginosa inactivation, statistical comparison (P. aeruginosa S20930; after 30 min): statistically equivalent
- P. aeruginosa inactivation, statistical comparison (P. aeruginosa S20930; at 90 min): statistically equivalent level as the chitosan/CA(0.5 and 5.0%)/PEO nanofiber mats
- E. coli inactivation compared with blank control (Escherichia coli S20918; no nanofiber mat): statistically inactivated more E. coli than the blank control
- antibacterial activity against E. coli compared with nanofiber mats (Escherichia coli S20918; after 30 and 180 min): statistically lower level of antibacterial activity
- antibacterial activity against E. coli compared with nanofiber mats (Escherichia coli S20918; at 90 min): statistically equivalent to the chitosan/CA(0.5%)/PEO nanofiber mats
